According to ChEMBL document CHEMBL1201862, “PubChem BioAssay data set” (2004):
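Exposure lasted 48 hours, with cells grown in 96-well plates and compounds tested at five concentrations. Here, GI50 denotes the concentration required for 50% inhibition of growth.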 Activity calls are given as the source filed them. Rule as the data show it: active = GI50 up to about 1.1 µM and inactive = higher.

How the values were obtained:
Experiment in all cases: DTP human tumour cell line panel, 48 h
786-0 = system: 786-0
KM12 = system: KM12
A549 = system: A549
OVCAR-5 = system: OVCAR-5
SNB-19 = system: SNB-19
NCI/ADR-RES = system: NCI/ADR-RES
HT-29 = system: HT-29
U-251 = system: U-251
SNB-75 = system: SNB-75
Malme-3M = system: Malme-3M
MDA-MB-435 = system: MDA-MB-435
CAKI-1 = system: CAKI-1
SK-OV-3 = system: SK-OV-3
SR = system: SR
OVCAR-3 = system: OVCAR-3
OVCAR-4 = system: OVCAR-4
SF-268 = system: SF-268
SF-295 = system: SF-295
DU-145 = system: DU-145
MOLT-4 = system: MOLT-4

Row | SMILES | GI50 (786-0) | GI50 (KM12) | GI50 (A549) | GI50 (OVCAR-5) | GI50 (SNB-19) | GI50 (NCI/ADR-RES) | GI50 (HT-29) | GI50 (U-251) | GI50 (SNB-75) | GI50 (Malme-3M) | GI50 (MDA-MB-435) | GI50 (CAKI-1) | GI50 (SK-OV-3) | GI50 (SR) | GI50 (OVCAR-3) | GI50 (OVCAR-4) | GI50 (SF-268) | GI50 (SF-295) | GI50 (DU-145) | GI50 (MOLT-4)
1 | CC(C)(C)NCc1cc(C(C)(C)C)cc(-c2ccc(Cl)cc2)c1O | 13.9 µM (inactive) | 13.2 µM (inactive) | 16 µM (inactive) | 13.8 µM (inactive) | 15.7 µM (inactive) | 14.6 µM (inactive) | 17.9 µM (inactive) | 11.9 µM (inactive) | 10.7 µM (inactive) | 13.8 µM (inactive) | 12.6 µM (inactive) | 12.6 µM (inactive) | 17.1 µM (inactive) | 10.9 µM (inactive) | 15.6 µM (inactive) | 16.5 µM (inactive) | 12.6 µM (inactive) | 17.3 µM (inactive) | 11.7 µM (inactive) | –
2 | C/C(=C\COP(=O)(O)OP(=O)(O)O)CC/C=C(\C)CNc1c(F)c(F)c(F)c(F)c1F | > 100 µM (inactive) | > 100 µM (inactive) | > 48.6 µM (inactive) | > 100 µM (inactive) | > 100 µM (inactive) | > 100 µM (inactive) | > 58.3 µM (inactive) | > 100 µM (inactive) | 1.69 µM (inactive) | – | > 100 µM (inactive) | > 100 µM (inactive) | > 100 µM (inactive) | 0.0695 µM (active) | > 100 µM (inactive) | > 100 µM (inactive) | > 100 µM (inactive) | > 52.8 µM (inactive) | > 67.6 µM (inactive) | > 100 µM (inactive)
3 | CNC(=O)Nc1cc2c3c(c1)CCCN3CCC2 | > 10 µM (inactive) | > 10 µM (inactive) | > 10 µM (inactive) | > 10 µM (inactive) | > 10 µM (inactive) | > 10 µM (inactive) | > 10 µM (inactive) | > 10 µM (inactive) | > 10 µM (inactive) | > 10 µM (inactive) | > 10 µM (inactive) | > 10 µM (inactive) | > 10 µM (inactive) | > 10 µM (inactive) | > 10 µM (inactive) | > 10 µM (inactive) | > 10 µM (inactive) | > 10 µM (inactive) | > 10 µM (inactive) | –
4 | Cc1ccc(S(=O)(=O)N2C3C=CC(C3)[C@@H]2C(Cl)(Cl)Cl)cc1 (some centres undefined) | 10 µM (inactive) | 20.3 µM (inactive) | 18.7 µM (inactive) | 0.0391 µM (active) | 17.9 µM (inactive) | 9.51 µM (inactive) | 11.8 µM (inactive) | 15 µM (inactive) | 18.2 µM (inactive) | 18.9 µM (inactive) | 27 µM (inactive) | 13.3 µM (inactive) | – | 14.4 µM (inactive) | 6.64 µM (inactive) | 15.2 µM (inactive) | 13.2 µM (inactive) | 13.6 µM (inactive) | 10.5 µM (inactive) | 19.3 µM (inactive)
5 | CN(C)c1cc2ccccc2oc1=O | > 100 µM (inactive) | > 100 µM (inactive) | > 100 µM (inactive) | > 100 µM (inactive) | > 100 µM (inactive) | > 100 µM (inactive) | > 100 µM (inactive) | > 100 µM (inactive) | > 100 µM (inactive) | > 100 µM (inactive) | > 100 µM (inactive) | > 100 µM (inactive) | – | > 100 µM (inactive) | > 100 µM (inactive) | > 100 µM (inactive) | > 100 µM (inactive) | > 100 µM (inactive) | > 100 µM (inactive) | > 100 µM (inactive)
6 | CC[C@@]1(O)C(=O)OCc2c1cc1n(c2=O)Cc2cc3cc(O)ccc3nc2-1 [HYDROXYCAMPTOTHECIN] | 0.0241 µM (active) | – | 0.0506 µM (active) | 0.047 µM (active) | – | 0.0232 µM (active) | – | < 0.0075 µM (active) | 0.014 µM (active) | 0.0498 µM (active) | 0.0453 µM (active) | 0.00971 µM (active) | 0.0227 µM (active) | 0.01 µM (active) | – | 0.092 µM (active) | – | – | 0.01 µM (active) | 0.00944 µM (active)
